According to PubChem BioAssay (NCI):
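Interpolation was linear, between the two tested concentrations surrounding the appropriate level; five concentrations were tested over 48 hours in 96-well plates. At the TGI there is no net growth.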

Tests used:
Test in all cases: growth of human tumour cells (NCI), 48 h
SF-539 CNS = tested on: SF-539 CNS
M14 melanoma = tested on: M14 melanoma
786-0 renal = tested on: 786-0 renal
DU-145 prostate = tested on: DU-145 prostate
NCI-H23 lung = tested on: NCI-H23 lung
IGROV1 ovarian = tested on: IGROV1 ovarian
NCI-H522 lung = tested on: NCI-H522 lung
MDA-N = tested on: MDA-N
UACC-257 melanoma = tested on: UACC-257 melanoma
LOX IMVI melanoma = tested on: LOX IMVI melanoma
HCT-116 colon = tested on: HCT-116 colon
NCI-H460 lung = tested on: NCI-H460 lung
HS 578T breast = tested on: HS 578T breast
U251 CNS = tested on: U251 CNS
SNB-19 CNS = tested on: SNB-19 CNS
COLO 205 colon = tested on: COLO 205 colon
SW-620 colon = tested on: SW-620 colon
SR leukemia = tested on: SR leukemia
NCI/ADR-RES ovarian = tested on: NCI/ADR-RES ovarian
HOP-62 NSCLC = tested on: HOP-62 NSCLC
MDA-MB-435 = tested on: MDA-MB-435
CAKI-1 renal = tested on: CAKI-1 renal
EKVX NSCLC = tested on: EKVX NSCLC
HCC-2998 colon = tested on: HCC-2998 colon
SK-MEL-5 melanoma = tested on: SK-MEL-5 melanoma
RPMI-8226 leukemia = tested on: RPMI-8226 leukemia
PC-3 prostate = tested on: PC-3 prostate
UO-31 renal = tested on: UO-31 renal
HT29 colon = tested on: HT29 colon
UACC-62 melanoma = tested on: UACC-62 melanoma
OVCAR-3 ovarian = tested on: OVCAR-3 ovarian
BT-549 breast = tested on: BT-549 breast
T-47D breast = tested on: T-47D breast
SK-MEL-2 melanoma = tested on: SK-MEL-2 melanoma
HOP-92 NSCLC = tested on: HOP-92 NSCLC
HL-60(TB) leukemia = tested on: HL-60(TB) leukemia
ACHN renal = tested on: ACHN renal
MCF7 breast = tested on: MCF7 breast
SN12C renal = tested on: SN12C renal
SNB-75 CNS = tested on: SNB-75 CNS
CCRF-CEM leukemia = tested on: CCRF-CEM leukemia
TK-10 renal = tested on: TK-10 renal
HCT-15 colon = tested on: HCT-15 colon
SK-OV-3 ovarian = tested on: SK-OV-3 ovarian
KM12 colon = tested on: KM12 colon
RXF 393 renal = tested on: RXF 393 renal
K-562 leukemia = tested on: K-562 leukemia
NCI-H226 lung = tested on: NCI-H226 lung
MOLT-4 leukemia = tested on: MOLT-4 leukemia
OVCAR-8 ovarian = tested on: OVCAR-8 ovarian
SK-MEL-28 melanoma = tested on: SK-MEL-28 melanoma
SF-295 CNS = tested on: SF-295 CNS
MDA-MB-231 breast = tested on: MDA-MB-231 breast
SF-268 CNS = tested on: SF-268 CNS
A549 NSCLC = tested on: A549 NSCLC
MALME-3M melanoma = tested on: MALME-3M melanoma
OVCAR-4 ovarian = tested on: OVCAR-4 ovarian
A498 renal = tested on: A498 renal
OVCAR-5 ovarian = tested on: OVCAR-5 ovarian

Question: With `Cc1cc(-c2nc3c(O)cccc3s2)ccc1N` as the molecule, how does the TGI (SF-539 CNS) read?
Answer: > 100 µM

Question: And the TGI (M14 melanoma)?
Answer: 39.5 µM

Question: And the TGI (786-0 renal)?
Answer: 95.1 µM

Question: What about the TGI (DU-145 prostate) of the same molecule?
Answer: > 100 µM

Question: What about the TGI (NCI-H23 lung) of the same molecule?
Answer: 89.4 µM

Question: What about the TGI (IGROV1 ovarian) of the same molecule?
Answer: 53.8 µM

Question: And the TGI (NCI-H522 lung)?
Answer: 39.9 µM

Question: What about the TGI (MDA-N) of the same molecule?
Answer: 76.9 µM

Question: And the TGI (UACC-257 melanoma)?
Answer: 57.6 µM

Question: What about the TGI (LOX IMVI melanoma) of the same molecule?
Answer: 40.1 µM

Question: What about the TGI (HCT-116 colon) of the same molecule?
Answer: 49 µM

Question: What about the TGI (NCI-H460 lung) of the same molecule?
Answer: > 100 µM

Question: And the TGI (HS 578T breast)?
Answer: 40.8 µM

Question: And the TGI (U251 CNS)?
Answer: > 100 µM

Question: And the TGI (SNB-19 CNS)?
Answer: 41 µM

Question: And the TGI (COLO 205 colon)?
Answer: > 100 µM

Question: And the TGI (SW-620 colon)?
Answer: > 100 µM

Question: What about the TGI (SR leukemia) of the same molecule?
Answer: 93.8 µM

Question: And the TGI (NCI/ADR-RES ovarian)?
Answer: 50.4 µM

Question: And the TGI (HOP-62 NSCLC)?
Answer: 88.8 µM

Question: And the TGI (MDA-MB-435)?
Answer: 38.2 µM

Question: What about the TGI (CAKI-1 renal) of the same molecule?
Answer: 56.1 µM

Question: And the TGI (EKVX NSCLC)?
Answer: 52.9 µM

Question: And the TGI (HCC-2998 colon)?
Answer: > 100 µM

Question: What about the TGI (SK-MEL-5 melanoma) of the same molecule?
Answer: > 100 µM

Question: What about the TGI (RPMI-8226 leukemia) of the same molecule?
Answer: > 100 µM

Question: And the TGI (PC-3 prostate)?
Answer: 52.6 µM

Question: What about the TGI (UO-31 renal) of the same molecule?
Answer: 36.6 µM

Question: What about the TGI (HT29 colon) of the same molecule?
Answer: 53.3 µM

Question: And the TGI (UACC-62 melanoma)?
Answer: 26.7 µM

Question: What about the TGI (OVCAR-3 ovarian) of the same molecule?
Answer: > 100 µM

Question: And the TGI (BT-549 breast)?
Answer: 58.3 µM

Question: And the TGI (T-47D breast)?
Answer: > 100 µM

Question: What about the TGI (SK-MEL-2 melanoma) of the same molecule?
Answer: 52.9 µM

Question: What about the TGI (HOP-92 NSCLC) of the same molecule?
Answer: 58.9 µM

Question: What about the TGI (HL-60(TB) leukemia) of the same molecule?
Answer: 44.5 µM

Question: And the TGI (ACHN renal)?
Answer: 43.4 µM

Question: And the TGI (MCF7 breast)?
Answer: 32.6 µM

Question: What about the TGI (SN12C renal) of the same molecule?
Answer: 90.7 µM

Question: What about the TGI (SNB-75 CNS) of the same molecule?
Answer: > 100 µM

Question: What about the TGI (CCRF-CEM leukemia) of the same molecule?
Answer: 82.9 µM

Question: What about the TGI (TK-10 renal) of the same molecule?
Answer: 74.8 µM

Question: What about the TGI (HCT-15 colon) of the same molecule?
Answer: 79 µM

Question: What about the TGI (SK-OV-3 ovarian) of the same molecule?
Answer: > 100 µM

Question: What about the TGI (KM12 colon) of the same molecule?
Answer: 65 µM

Question: What about the TGI (RXF 393 renal) of the same molecule?
Answer: > 100 µM

Question: What about the TGI (K-562 leukemia) of the same molecule?
Answer: > 100 µM

Question: And the TGI (NCI-H226 lung)?
Answer: > 100 µM

Question: What about the TGI (MOLT-4 leukemia) of the same molecule?
Answer: > 100 µM

Question: What about the TGI (OVCAR-8 ovarian) of the same molecule?
Answer: 54.4 µM

Question: And the TGI (SK-MEL-28 melanoma)?
Answer: > 100 µM

Question: And the TGI (SF-295 CNS)?
Answer: 72.2 µM

Question: What about the TGI (MDA-MB-231 breast) of the same molecule?
Answer: 61.7 µM

Question: What about the TGI (SF-268 CNS) of the same molecule?
Answer: 75.6 µM

Question: What about the TGI (A549 NSCLC) of the same molecule?
Answer: 47.9 µM

Question: Which results are given for `COC(=O)NN(C(=O)OC)c1c(-c2ccccc2)nc(SC)n1N`?
Answer: TGI (SF-539 CNS): > 100 µM; TGI (M14 melanoma): > 100 µM; TGI (786-0 renal): > 100 µM; TGI (MALME-3M melanoma): > 100 µM; TGI (DU-145 prostate): > 100 µM; TGI (NCI-H23 lung): > 100 µM; TGI (IGROV1 ovarian): > 100 µM; TGI (NCI-H522 lung): > 100 µM; TGI (MDA-N): > 100 µM; TGI (UACC-257 melanoma): > 100 µM; TGI (LOX IMVI melanoma): > 100 µM; TGI (HCT-116 colon): > 100 µM; TGI (NCI-H460 lung): > 100 µM; TGI (HS 578T breast): > 100 µM; TGI (U251 CNS): > 100 µM; TGI (SNB-19 CNS): > 100 µM; TGI (COLO 205 colon): > 100 µM; TGI (SW-620 colon): > 100 µM; TGI (SR leukemia): > 100 µM; TGI (NCI/ADR-RES ovarian): > 100 µM; TGI (HOP-62 NSCLC): > 100 µM; TGI (MDA-MB-435): > 100 µM; TGI (CAKI-1 renal): > 100 µM; TGI (EKVX NSCLC): > 100 µM; TGI (HCC-2998 colon): > 100 µM; TGI (SK-MEL-5 melanoma): > 100 µM; TGI (RPMI-8226 leukemia): > 100 µM; TGI (PC-3 prostate): > 100 µM; TGI (UO-31 renal): > 100 µM; TGI (UACC-62 melanoma): > 100 µM; TGI (OVCAR-3 ovarian): > 100 µM; TGI (BT-549 breast): > 100 µM; TGI (T-47D breast): > 100 µM; TGI (OVCAR-4 ovarian): > 100 µM; TGI (SK-MEL-2 melanoma): > 100 µM; TGI (HL-60(TB) leukemia): > 100 µM; TGI (ACHN renal): > 100 µM; TGI (MCF7 breast): > 100 µM; TGI (SN12C renal): > 100 µM; TGI (SNB-75 CNS): > 100 µM; TGI (CCRF-CEM leukemia): > 100 µM; TGI (A498 renal): > 100 µM; TGI (TK-10 renal): > 100 µM; TGI (HCT-15 colon): > 100 µM; TGI (KM12 colon): > 100 µM; TGI (RXF 393 renal): > 100 µM; TGI (K-562 leukemia): > 100 µM; TGI (NCI-H226 lung): > 100 µM; TGI (MOLT-4 leukemia): > 100 µM; TGI (OVCAR-5 ovarian): > 100 µM; TGI (OVCAR-8 ovarian): > 100 µM; TGI (SK-MEL-28 melanoma): > 100 µM; TGI (SF-295 CNS): > 100 µM; TGI (MDA-MB-231 breast): > 100 µM; TGI (SF-268 CNS): > 100 µM; TGI (A549 NSCLC): > 100 µM
